The values below come from patent US10745400B2, “Inhibition of BMP signaling, compounds, compositions and uses thereof” (Vanderbilt University, priority 2018, dated 2020).

Where a chain is given by its changes, count along the chain named.

The nature of data set [1]: Intrinsic clearance, mouse. The data set is classed as in vitro ADME. To be noted: mouse.
Data set [2] can be described thus: Intrinsic clearance, human. Type of data set: in vitro ADME. The note with it: human.
The next data set is described as follows: Protein binding, mouse. Type of data set: in vitro ADME.
A further data set in a line: Protein binding, human. The data set is classed as in vitro ADME.
Data set [3] relates to BMP-responsive C2C12 mouse myoblast cells stimulated with BMP4. The data set is described as follows: BMP4 cell assay (Id1 promoter-firefly luciferase reporter). Type of data set: cell-based. To be noted: Mus musculus, C2C12, C2C12 cells, BMP4 50 ng/mL, overnight. As for the experimental part:
The BMP4 cell assay were carried out briefly as follows. Stably transfected BMP-responsive C2C12 mouse myoblast cells (containing the Idl promoter-firefly luciferase reporter) were seeded in 96-well plates and incubated overnight with the compounds and BMP4 (50 ng/mL). The cells were then lysed, and cell extracts were then subjected to the firefly luciferase assay using Steady-Glo luciferase assay kit (Promega). The results were normalized to cell titers, as measured using Cell Titer-Glo luminescence assay (Promega). […] Relative activity was quantified by the ratio of firefly to Renilla luciferase activities using the dual luciferase assay kit (Promega).
Background: In a reporter assay the amount or activity of a reporter protein is the signal.

The next data set addresses ALK1/ACVRL1 (Homo sapiens, UniProt P37023). Description: Kinase assay (33P-ATP filter-binding), ALK1. Type of data set: biochemical. The note with it: read-out: Kinase Selectivity ALK1/ACVRL1. Here is the method: (§1) The kinase assays were carried out briefly as follows. Substrate was prepared in Base Reaction Buffer (20 mM Hepes (pH 7.5), 10 mM MgCl2, 1 mM EGTA, 0.02% Brij35, 0.02 mg/ml BSA, 0.1 mM Na3VO4, 2 mM DTT, 1% DMSO). The indicated kinases was delivered into the substrate solution and allowed to gently mix. Next, the specific compound was delivered in DMSO into the kinase mixture by Acoustic technology (Echo550; nanoliter range), and allowed to incubate for 20 minutes at room temperature. Next, ^33P-ATP was delivered into the reaction mixture to initiate the reaction and allowed to incubate at room temperature. After 2 hours, the reactions were spotted onto P81 ion exchange paper and the kinase activity is detected by the filter-binding method.

The next data set has as its target T1, ALK2 (Q207D) (Homo sapiens, UniProt Q04771, Q207D).
T1 sequence (Q04771 21-509 Q207D): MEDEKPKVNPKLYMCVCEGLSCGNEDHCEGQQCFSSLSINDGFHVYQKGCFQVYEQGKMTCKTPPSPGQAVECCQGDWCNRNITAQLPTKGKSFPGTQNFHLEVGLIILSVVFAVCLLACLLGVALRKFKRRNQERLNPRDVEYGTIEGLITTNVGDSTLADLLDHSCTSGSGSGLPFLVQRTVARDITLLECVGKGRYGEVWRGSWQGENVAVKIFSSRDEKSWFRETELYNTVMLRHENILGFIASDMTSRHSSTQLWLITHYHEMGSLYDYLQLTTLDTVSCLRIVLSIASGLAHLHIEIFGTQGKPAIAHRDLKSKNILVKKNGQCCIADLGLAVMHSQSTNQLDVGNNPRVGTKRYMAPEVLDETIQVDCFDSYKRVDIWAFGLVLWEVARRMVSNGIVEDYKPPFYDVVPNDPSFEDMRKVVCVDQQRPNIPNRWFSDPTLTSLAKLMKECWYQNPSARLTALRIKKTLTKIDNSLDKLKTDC
Description: Kinase assay (33P-ATP filter-binding), ALK2 Q207D. The data set is classed as biochemical. To be noted: Q207D mutant, 20 mM; read-out: Kinase Selectivity ALK2 (Q207D, 20 mM). Here is the method: as §1

In the next data set the target is T2, ALK2/ACVR1 (Homo sapiens, UniProt Q04771).
T2 sequence (Q04771 21-509): T1 sequence (Q04771 21-509 Q207D) with D187Q
The data set is described as follows: Kinase assay (33P-ATP filter-binding), ALK2. The data set is classed as biochemical. The note with it: 20 mM; read-out: Kinase Selectivity ALK2/ACVR1 (20 mM). Here is the method:
as §1

The target of a further data set is ALK3/BMPR1A (Homo sapiens, UniProt P36894). The data set is described as follows: Kinase assay (33P-ATP filter-binding), ALK3. Type of data set: biochemical. To be noted: 1 mM; read-out: Kinase Selectivity ALK3/BMPR1A (1 mM). Here is the method:
as §1

Another data set concerns the target T3, ALK2 (R206H) (Homo sapiens, UniProt Q04771, R206H).
T3 sequence (Q04771 21-509 R206H): T1 sequence (Q04771 21-509 Q207D) with R186H, D187Q
Description: Kinase assay (33P-ATP filter-binding), ALK2 R206H. The data set is classed as biochemical. The note with it: R206H mutant, 20 mM; read-out: Kinase Selectivity ALK2 (R206H, 20 mM). As for the experimental part:
as §1

Setting [4] is: CL-Hep, value in parentheses, read-out: Intrinsic Clearance Mouse (CL-Hep).
Where [5] appears, read: read-out: Intrinsic Clearance Mouse.
[6] abbreviates: CL-Hep, value in parentheses, read-out: Intrinsic Clearance Human (CL-Hep).
Setting [7] is: read-out: Intrinsic Clearance Human.

Sequence of ALK1/ACVRL1 (P37023 22-503): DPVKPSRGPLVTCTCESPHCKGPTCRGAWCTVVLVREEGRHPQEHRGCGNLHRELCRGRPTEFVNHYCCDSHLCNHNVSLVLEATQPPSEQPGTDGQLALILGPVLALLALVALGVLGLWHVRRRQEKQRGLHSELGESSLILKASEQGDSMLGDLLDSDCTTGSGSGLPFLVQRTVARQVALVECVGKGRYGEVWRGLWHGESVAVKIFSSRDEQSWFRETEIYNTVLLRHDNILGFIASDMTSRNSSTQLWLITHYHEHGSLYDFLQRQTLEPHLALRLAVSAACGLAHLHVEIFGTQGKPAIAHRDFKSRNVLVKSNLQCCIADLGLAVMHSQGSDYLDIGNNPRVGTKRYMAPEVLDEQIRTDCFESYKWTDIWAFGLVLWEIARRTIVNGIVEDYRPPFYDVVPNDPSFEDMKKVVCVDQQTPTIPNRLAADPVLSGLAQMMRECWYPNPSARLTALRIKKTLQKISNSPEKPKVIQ
Sequence of ALK3/BMPR1A (P36894 24-532): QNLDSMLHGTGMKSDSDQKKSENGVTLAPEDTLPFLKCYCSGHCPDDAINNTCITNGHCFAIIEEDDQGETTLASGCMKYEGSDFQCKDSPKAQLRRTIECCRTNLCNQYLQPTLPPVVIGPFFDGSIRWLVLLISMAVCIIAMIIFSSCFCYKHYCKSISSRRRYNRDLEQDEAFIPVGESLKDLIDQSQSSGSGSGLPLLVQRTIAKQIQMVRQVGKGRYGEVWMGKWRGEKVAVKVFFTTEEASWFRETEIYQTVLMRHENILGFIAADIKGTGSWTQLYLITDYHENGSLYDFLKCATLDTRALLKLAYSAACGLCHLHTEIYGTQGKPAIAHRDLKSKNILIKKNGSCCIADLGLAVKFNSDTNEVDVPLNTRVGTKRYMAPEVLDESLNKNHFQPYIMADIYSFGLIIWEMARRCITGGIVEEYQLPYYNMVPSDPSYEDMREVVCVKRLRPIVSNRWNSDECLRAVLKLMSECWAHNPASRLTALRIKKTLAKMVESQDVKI

`Cc1cc(-c2cnc3cc(-c4ccc(C5CNCCN5)cc4)ccn23)c2ccccc2n1` (centres unmarked) [Compound 12]: the CLint scaled in data set [1] (setting [4]) is < 32.9 mL/min/kg; in [1] (setting [5]) it was < 49.5 mL/min/kg; in data set [2] (setting [6]) it was < 10.7 mL/min/kg; in [2] (setting [7]), < 23.1 mL/min/kg. Besides, the “Protein Binding (% Free) Mouse” value in the data set “Protein binding, mouse” worked out at 4.94 % Free. The “Protein Binding (% Free) Human” value in the data set “Protein binding, human” was 13.6 % Free. The compound further showed an IC50 in [3] of 13.5 nM.
Turning to `Cc1cc(-c2cnc3cc(-c4ccc(C5COCCCN5)cc4)ccn23)c2cc(F)ccc2n1` (centres unmarked) [Compound 10], the CLint scaled in [1] (setting [4]) stood at 47.6 mL/min/kg; in data set [1] (setting [5]) it was 101 mL/min/kg; in [2] (setting [6]) it was 17.4 mL/min/kg; in data set [2] (setting [7]) it was 139 mL/min/kg. Further, the IC50 at ALK1/ACVRL1, at ALK2 (Q207D), on ALK2/ACVR1, on ALK3/BMPR1A and at ALK2 (R206H) was < 5.1 nM in each case. For the same compound, the “Protein Binding (% Free) Mouse” value in the data set “Protein binding, mouse” amounted to 1.91 % Free. Besides, the “Protein Binding (% Free) Human” value in “Protein binding, human” is listed as 2.39 % Free.
As for `c1cnc2c(-c3cnc4cc(-c5ccc(C6CNCCN6)cc5)ccn34)ccnc2c1` (centres unmarked) [Compound 34], the CLint scaled in [1] (setting [4]) is < 31.9 mL/min/kg; in data set [1] (setting [5]), < 49.5 mL/min/kg; in data set [2] (setting [6]), 12.3 mL/min/kg; in data set [2] (setting [7]) it was 29.6 mL/min/kg. The IC50 on ALK1/ACVRL1 is 16.9 nM; on ALK2 (Q207D) it was < 5.1 nM; on ALK2/ACVR1, 6.2 nM; at ALK3/BMPR1A it was < 5.1 nM; at ALK2 (R206H), 7.5 nM. In addition, the “Protein Binding (% Free) Mouse” value in the data set “Protein binding, mouse” is listed as 21.2 % Free. Besides, the “Protein Binding (% Free) Human” value in the data set “Protein binding, human” stood at 39.4 % Free.
Take `Cc1cc(-c2cnc3cc(N4CC5(CCNCC5)C4)ccn23)c2cc(F)cc(F)c2n1` [Compound 24]: the CLint scaled was < 32.9 mL/min/kg in [1] (setting [4]), < 49.5 mL/min/kg in data set [1] (setting [5]), 14 mL/min/kg in data set [2] (setting [6]) and 46.3 mL/min/kg in [2] (setting [7]). Further, the IC50 on ALK1/ACVRL1 was 1250 nM; on ALK2 (Q207D), 129 nM; at ALK2/ACVR1 it was 57.8 nM; on ALK3/BMPR1A, 5.2 nM; on ALK2 (R206H), 58.3 nM. For the same compound, the “Protein Binding (% Free) Mouse” value in “Protein binding, mouse” amounted to 1.08 % Free. Besides, the “Protein Binding (% Free) Human” value in the data set “Protein binding, human” was found to be 0.75 % Free.
Take `c1cnc2scc(-c3cnc4cc(-c5ccc(C6CNCCN6)cc5)ccn34)c2c1` (centres unmarked) [Compound 31]: the CLint scaled in data set [1] (setting [4]) is 33.6 mL/min/kg; in data set [1] (setting [5]), 53.5 mL/min/kg; in [2] (setting [6]) it was < 11 mL/min/kg; in data set [2] (setting [7]), < 23.1 mL/min/kg. In addition, the IC50 on ALK1/ACVRL1 is 30.7 nM; on ALK2 (Q207D) it was < 5.1 nM; on ALK2/ACVR1, 20.1 nM; on ALK3/BMPR1A, 21.2 nM; at ALK2 (R206H), 20.6 nM. Besides, the “Protein Binding (% Free) Mouse” value in the data set “Protein binding, mouse” is 6.8 % Free. In the data set “Protein binding, human”, the “Protein Binding (% Free) Human” value was 16.2 % Free.
As for `Cc1cc(-c2cnc3cc(-c4ccc(C5COCC(C)N5)cc4)ccn23)c2cc(F)ccc2n1` (centres unmarked) [Compound 20], the CLint scaled in data set [1] (setting [4]) worked out at 50.2 mL/min/kg; in data set [1] (setting [5]) it was 114 mL/min/kg; in [2] (setting [6]), 17.1 mL/min/kg; in [2] (setting [7]), 117 mL/min/kg. In addition, the IC50 at ALK1/ACVRL1 is 23 nM; on ALK2 (Q207D), < 5.1 nM; at ALK2/ACVR1, < 5.1 nM; at ALK3/BMPR1A, < 5.1 nM; on ALK2 (R206H), < 5.1 nM. For the same compound, the “Protein Binding (% Free) Mouse” value in “Protein binding, mouse” is 1.36 % Free. The “Protein Binding (% Free) Human” value in the data set “Protein binding, human” came to 4.01 % Free.
Take `Cc1cc(-c2cnc3cc(-c4ccc(N5CCNC(C)(C)C5)cc4)ccn23)c2cc(F)cc(F)c2n1` [Compound 26]: the CLint scaled in data set [1] (setting [4]) was 47.1 mL/min/kg; in [1] (setting [5]) it was 99 mL/min/kg; in data set [2] (setting [6]) it was < 10.7 mL/min/kg; in [2] (setting [7]), < 23.1 mL/min/kg. For the same compound, the IC50 on ALK1/ACVRL1 came out at 330 nM; on ALK2 (Q207D) it was 69.7 nM; at ALK2/ACVR1, 14.9 nM; on ALK3/BMPR1A it was 5.7 nM; on ALK2 (R206H), 79.3 nM. The “Protein Binding (% Free) Mouse” value in “Protein binding, mouse” came out at 1.03 % Free. The “Protein Binding (% Free) Human” value in the data set “Protein binding, human” is listed as 0.61 % Free.
As for `Cc1cc(-c2cnc3cc(-c4ccc(C5COC(C)CN5)cc4)ccn23)c2cc(F)cc(F)c2n1` (centres unmarked) [Compound 19], the CLint scaled was found to be 53.3 mL/min/kg in data set [1] (setting [4]), 131 mL/min/kg in data set [1] (setting [5]), 15.9 mL/min/kg in data set [2] (setting [6]) and 77.2 mL/min/kg in data set [2] (setting [7]). Moreover, the IC50 is 14.1 nM on ALK1/ACVRL1; < 5.1 nM on ALK2 (Q207D); < 5.1 nM at ALK2/ACVR1; < 5.1 nM at ALK3/BMPR1A; < 5.1 nM at ALK2 (R206H). Besides, in the data set “Protein binding, mouse”, the “Protein Binding (% Free) Mouse” value is 3.15 % Free. The “Protein Binding (% Free) Human” value in the data set “Protein binding, human” is recorded as 3.74 % Free.
Turning to `Cc1cc(-c2cnc3cc(-c4ccc(C5COC(C)CN5)cc4)ccn23)c2ccccc2n1` (centres unmarked) [Compound 14], the CLint scaled in [1] (setting [4]) was 50.3 mL/min/kg; in [1] (setting [5]), 114 mL/min/kg; in data set [2] (setting [6]) it was 16.5 mL/min/kg; in data set [2] (setting [7]) it was 93 mL/min/kg. Further, the IC50 on ALK1/ACVRL1, on ALK2 (Q207D), on ALK2/ACVR1, at ALK3/BMPR1A and on ALK2 (R206H) was < 5.1 nM in each case. Besides, the “Protein Binding (% Free) Mouse” value in the data set “Protein binding, mouse” was 1.6 % Free. In addition, the “Protein Binding (% Free) Human” value in “Protein binding, human” turned out to be 0.76 % Free.
